Columns and labels:
[1] = test system: TGF-β-stimulated SMAD3 phosphorylation in BEAS-2B cells; test: Cellular ALK5 potency assay, inhibition of TGF-β stimulated pSMAD3 formation in BEAS-2B cells; format: cell-based; conditions: Homo sapiens; inhibition of TGF-β stimulated pSMAD3 formation, BEAS-2B cells; read-out: BEAS2B pIC50 (converted)
Outline: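 BEAS-2B human lung epithelial cells, seeded overnight, were pre-treated with compound in HBSS/25 mM HEPES/1% BSA for 1 h at 37 °C, then stimulated with TGF-β (final 10 ng/mL) for 30 min. Lysates were assayed for pSMAD3 by AlphaLISA; pIC50 came from dose-dependent signal change versus TGF-β-stimulated untreated cells.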

[2] = biological target: T1, recombinant human ALK5 (TGF-βR1) protein (Homo sapiens, UniProt P36897); test: Biochemical ALK5 (TGF-βR1) assay to measure pKi (LANCE Ultra ULight kinase assay); conditions: apparent pKi from pIC50 by Cheng-Prusoff, read-out: ALK5 pKi (converted)
T1 construct: purchased Life Technologies PR9075A
T1 sequence (P36897 34-503): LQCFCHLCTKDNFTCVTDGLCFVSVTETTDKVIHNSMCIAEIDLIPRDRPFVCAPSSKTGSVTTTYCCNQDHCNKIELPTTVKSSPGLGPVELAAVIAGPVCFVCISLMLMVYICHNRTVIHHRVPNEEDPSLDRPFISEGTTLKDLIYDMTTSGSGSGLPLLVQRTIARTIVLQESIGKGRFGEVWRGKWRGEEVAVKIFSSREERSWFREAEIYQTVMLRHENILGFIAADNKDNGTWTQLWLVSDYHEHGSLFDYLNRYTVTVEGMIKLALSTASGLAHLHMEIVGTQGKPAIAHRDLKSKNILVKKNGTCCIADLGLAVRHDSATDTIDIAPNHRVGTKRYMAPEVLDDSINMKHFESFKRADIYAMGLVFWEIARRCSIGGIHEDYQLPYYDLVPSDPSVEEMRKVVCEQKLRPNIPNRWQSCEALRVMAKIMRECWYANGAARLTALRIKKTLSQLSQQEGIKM
Outline: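 Compounds (10 μM to 25 pM) preincubated 60 minutes at room temperature with enzyme, then reaction run 60 minutes at 37° C with ATP added as 125 μM (5× final). Stopped with EDTA plus Eu-anti-phospho-Topoisomerase 2-alpha (Thr1342) antibody, TR-FRET read at 665 nm; pIC50 converted to pKi via Cheng-Prusoff.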

SMILES | IC50 [1] [nM] | Ki [2] [nM]
Cc1cccc(-c2n[nH]cc2-c2ccc3ncc(N4CCN(CC(F)(F)F)CC4)cc3n2)n1 [Compound 266, 2-[3-(6-methyl-2-pyridyl)-1H-pyrazol-4-yl]-7-[4-(2,2,2-trifluoroethyl)piperazin-1-yl]-1,5-naphthyridine] | 25.1 to 158 | 0.0398 to 0.316
Cc1cccc(-c2nnn(Cc3ccccc3)c2-c2ccc3ncc(-c4cnn(C5CCCNC5)c4)cc3c2)n1 (centres unmarked) [Compound 27, 6-[3-benzyl-5-(6-methyl-2-pyridyl)triazol-4-yl]-3-[1-(3-piperidyl)pyrazol-4-yl]quinoline] | 25.1 to 158 | 0.0398 to 0.316
Cc1cccc(-c2[nH]cnc2-c2ccc3ncc(-c4cccc(NC5CNC5)n4)cc3c2)n1 [Compound 180, N-(azetidin-3-yl)-6-[6-[5-(6-methyl-2-pyridyl)-1H-imidazol-4-yl]-3-quinolyl]pyridin-2-amine] | 1580 to 10000 | 0.0398 to 0.316
Cc1cccc(-c2[nH]cnc2-c2ccc3ncc(C(=O)OC[C@@H]4CCCNC4)cc3c2)n1 [Compound 877, (R)-piperidin-3-ylmethyl 6-(5-(6-methylpyridin-2-yl)-1H-imidazol-4-yl)quinoline-3-carboxylate] | 25.1 to 158 | 0.0398 to 0.316
C=C(CN1CCNCC1)c1cnc2ccc(-c3nc[nH]c3-c3cccc(C)n3)cc2c1 [Compound 256, 6-[5-(6-methyl-2-pyridyl)-1H-imidazol-4-yl]-3-[1-(piperazin-1-ylmethyl)vinyl]quinoline] | 25.1 to 158 | 0.0398 to 0.316
Cc1cccc(-c2[nH]cnc2-c2ccc3ncc(-c4cc(C(=O)O[C@@H]5CCNC5)ccn4)cc3c2)n1 [Compound 1087, [(3R)-pyrrolidin-3-yl] 2-[6-[5-(6-methyl-2-pyridyl)-1H-imidazol-4-yl]-3-quinolyl]pyridine-4-carboxylate] | 25.1 to 158 | < 0.0316
Cc1cccc(-c2[nH]cnc2-c2ccc3ncc(Nc4ccc(N5CCNCC5)cn4)cc3c2)n1 [Compound 519, 6-[5-(6-methyl-2-pyridyl)-1H-imidazol-4-yl]-N-(5-piperazin-1-yl-2-pyridyl)quinolin-3-amine] | 200 to 1260 | 0.0398 to 0.316
Cc1cccc(-c2n[nH]cc2-c2ccc3ncc(N(C)CC4CNC4)cc3n2)n1 [Compound 357, N-(azetidin-3-ylmethyl)-N-methyl-6-[3-(6-methyl-2-pyridyl)-1H-pyrazol-4-yl]-1,5-naphthyridin-3-amine] | 25.1 to 158 | < 0.0316
Cc1cccc(-c2[nH]cnc2-c2ccc3nccc(C(=O)OC[C@H]4CC[C@@H](N)CC4)c3c2)n1 [Compound 1077, (4-aminocyclohexyl)methyl 6-[5-(6-methyl-2-pyridyl)-1H-imidazol-4-yl]quinoline-4-carboxylate] | 25.1 to 158 | 0.398 to 3.16
Cc1cccc(-c2nc3ccccn3c2-c2ccc3ncc(-c4nc5n(n4)CCNC5)cc3n2)n1 [Compound 415, 2-[2-(6-methyl-2-pyridyl)imidazo[1,2-a]pyridin-3-yl]-7-(5,6,7,8-tetrahydro-[1,2,4]triazolo[1,5-a]pyrazin-2-yl)-1,5-naphthyridine] | < 20 | 0.0398 to 0.316
COC(=O)[C@@H]1CCCN(CCNc2cnc3ccc(-c4nc[nH]c4-c4cccc(C)n4)cc3c2)C1 [Compound 728, methyl (3R)-1-[2-[[6-[5-(6-methyl-2-pyridyl)-1H-imidazol-4-yl]-3-quinolyl]amino]ethyl]piperidine-3-carboxylate] | 25.1 to 158 | 0.0398 to 0.316
Cc1cccc(-c2[nH]cnc2-c2ccc3ncc(-c4ncc(C(=O)OCCN5CCNCC5)cn4)cc3c2)n1 [Compound 1125, 2-piperazin-1-ylethyl 2-[6-[5-(6-methyl-2-pyridyl)-1H-imidazol-4-yl]-3-quinolyl]pyrimidine-5-carboxylate] | 25.1 to 158 | < 0.0316
Cc1cccc(-c2[nH]cnc2-c2ccc3ncc(-c4nc(C(=O)OC5CNC5)cs4)cc3c2)n1 [Compound 745, azetidin-3-yl 2-[6-[5-(6-methyl-2-pyridyl)-1H-imidazol-4-yl]-3-quinolyl]thiazole-4-carboxylate] | 25.1 to 158 | 0.0398 to 0.316
Cc1nc(-c2n[nH]cc2-c2ccc3ncc(-c4cnn(CC5CNC5)c4)cc3n2)ccc1F [Compound 474, 7-[1-(azetidin-3-ylmethyl)pyrazol-4-yl]-2-[3-(5-fluoro-6-methyl-2-pyridyl)-1H-pyrazol-4-yl]-1,5-naphthyridine] | 25.1 to 158 | < 0.0316
Cc1cccc(-c2[nH]ncc2-c2ccc3nccc(C(=O)O[C@H]4C[C@@H](N)C4)c3c2)n1 [Compound 1047, (3-aminocyclobutyl) 6-[5-(6-methyl-2-pyridyl)-1H-pyrazol-4-yl]quinoline-4-carboxylate] | 25.1 to 158 | 0.398 to 3.16
Cc1cccc(-c2[nH]cnc2-c2ccc3ncc(C4=CCN(Cc5ccccc5)C4)cc3c2)n1 [Compound 232, 3-(1-benzyl-2,5-dihydropyrrol-3-yl)-6-[5-(6-methyl-2-pyridyl)-1H-imidazol-4-yl]quinoline] | 25.1 to 158 | < 0.0316
Cc1nc(-c2n[nH]cc2-c2ccc3ncc(N4CC[C@H](N(C)C)C4)cc3n2)ccc1F [Compound 135, (3S)-1-[6-[3-(5-fluoro-6-methyl-2-pyridyl)-1H-pyrazol-4-yl]-1,5-naphthyridin-3-yl]-N,N-dimethyl-pyrrolidin-3-amine] | 25.1 to 158 | < 0.0316
Cc1nc(-c2[nH]cnc2-c2ccc3ncc(-c4cn[nH]c4)cc3c2)ccc1F [Compound 423, 6-[5-(5-fluoro-6-methyl-2-pyridyl)-1H-imidazol-4-yl]-3-(1H-pyrazol-4-yl)quinoline] | < 20 | < 0.0316
Cc1cccc(-c2n[nH]cc2-c2ccc3nccc(C(N)=O)c3n2)n1 [Compound 806, 6-[3-(6-methyl-2-pyridyl)-1H-pyrazol-4-yl]-1,5-naphthyridine-4-carboxamide] | 25.1 to 158 | 0.398 to 3.16
Cc1cccc(-c2[nH]cnc2-c2ccc3ncc(-c4ccc(C(=O)OC5CCNCC5)cc4)cc3c2)n1 [Compound 310, 4-piperidyl 4-[6-[5-(6-methyl-2-pyridyl)-1H-imidazol-4-yl]-3-quinolyl]benzoate] | 25.1 to 158 | 0.0398 to 0.316
Cc1cccc(-c2[nH]cnc2-c2ccc3ncc(-c4ccc(C(=O)OCC5CNC5)nc4)cc3c2)n1 [Compound 54, azetidin-3-ylmethyl 5-[6-[5-(6-methyl-2-pyridyl)-1H-imidazol-4-yl]-3-quinolyl]pyridine-2-carboxylate] | 200 to 1260 | 0.0398 to 0.316
Cc1cccc(-c2n[nH]cc2-c2ccc3ncc(NCCN4C[C@@H](C)N[C@@H](C)C4)cc3n2)n1 [Compound 516, 6-[3-(6-methyl-2-pyridyl)-1H-pyrazol-4-yl]-N-[2-[rac-(3R,5S)-3,5-dimethylpiperazin-1-yl]ethyl]-1,5-naphthyridin-3-amine] | 25.1 to 158 | 0.0398 to 0.316
Cc1nc(-c2n[nH]cc2-c2ccc3ncc(-c4ccc5c(n4)CCNC5)cc3n2)ccc1F [Compound 34, 2-[3-(5-fluoro-6-methyl-2-pyridyl)-1H-pyrazol-4-yl]-7-(5,6,7,8-tetrahydro-1,6-naphthyridin-2-yl)-1,5-naphthyridine] | 25.1 to 158 | < 0.0316
Cc1cccc(-c2n[nH]cc2-c2ccc3ncc(N4CCC(N5CCN(C)CC5)CC4)cc3n2)n1 [Compound 205, 7-[4-(4-methylpiperazin-1-yl)-1-piperidyl]-2-[3-(6-methyl-2-pyridyl)-1H-pyrazol-4-yl]-1,5-naphthyridine] | 25.1 to 158 | 0.0398 to 0.316
Cc1cccc(-c2[nH]cnc2-c2ccc3ncc(-c4ccc5c(c4)CNC5)cc3c2)n1 [Compound 699, 3-isoindolin-5-yl-6-[5-(6-methyl-2-pyridyl)-1H-imidazol-4-yl]quinoline] | < 20 | < 0.0316
Cc1cccc(-c2[nH]ncc2-c2ccc3ncc(C(=O)OCCN4CCNCC4)cc3n2)n1 [Compound 277, 2-piperazin-1-ylethyl 6-[5-(6-methyl-2-pyridyl)-1H-pyrazol-4-yl]-1,5-naphthyridine-3-carboxylate] | 200 to 1260 | 0.0398 to 0.316
Cc1cccc(-c2[nH]ncc2-c2ccc3ncc(C(=O)O[C@H]4CCNC4)cc3c2)n1 [Compound 1218, [(3S)-pyrrolidin-3-yl]6-[5-(6-methyl-2-pyridyl)-1H-pyrazol-4-yl]quinoline-3-carboxylate] | 25.1 to 158 | 0.0398 to 0.316
Cc1cccc(-c2n[nH]cc2-c2ccc3ncc(-c4cccn(C)c4=O)cc3n2)n1 [Compound 12, 1-methyl-3-[6-[3-(6-methyl-2-pyridyl)-1H-pyrazol-4-yl]-1,5-naphthyridin-3-yl]pyridin-2-one] | < 20 | < 0.0316
